Experimental data published in paper PMC3608651, “A Broad Profile of Co-Dominant Epitopes Shapes the Peripheral Mycobacterium tuberculosis Specific CD8+ T-Cell Immune Response in South African Patients with Active Tuberculosis” (PLoS ONE, 2013).
Like-named read-outs stand apart in the source and are kept apart here.

Key:
Type in all cases: binding
[1] = target: HLA-A*30:02 (Homo sapiens, UniProt P04439, D101N/D140H/D185E/E176R/F33S/G80R/H175R/K168Q/Q94H/R138E/R41S/V100E); details: duplicated experiments, positive binder >40%
[2] = target: HLA-A*02:01 (Homo sapiens, UniProt P04439, D140Y/D185E/D98H/E176V/E277Q/G131W/G231S/I119V/I121R/I166T/I218V/L300P/L318F/N151K/N90K/P208A/P217A/Q86G/Q94H/R138H/R169H/T345S)
[3] = target: HLA-C*07:01 (Homo sapiens, UniProt P10321, K90N/S123Y); details: duplicated experiments, positive binder >40%
[4] = target: HLA-B*58:01 (Homo sapiens, UniProt P01889, A329T/C349S/D201E/D98Y/E176V/E187L/E204Q/E69T/G107R/I218V/I90N/K202T/L105A/L119I/N104I/N87E/Q89R/Q94S/R106L/R155S/R180L/R86G/S101N/S121R/S35A/S48A/T118I/V127L/V306I/V36M/Y140S/Y91M); details: duplicated experiments, positive binder >40%
[5] = target: HLA-A*68:01 (Homo sapiens, UniProt P04439, A269V/D185E/E176V/E277Q/E87N/F33Y/G231S/I121M/I166T/I218V/L180W/L300P/L318F/N151K/P208A/P217A/Q86R/R169H/T345S); details: duplicated experiments, positive binder >40%
[6] = target: HLA-A*30:01 (Homo sapiens, UniProt P04439, D140H/D185E/E176W/F33S/G80R/H175R/K168Q/R138E/R41S); details: duplicated experiments, positive binder >40%
[7] = target: HLA-B*07:02 (Homo sapiens, UniProt P01889); details: percent relative the binding of positive control peptide […]; duplicated experiments; positive binder >40%
[8] = target: HLA-A*24:02 (Homo sapiens, UniProt P04439, D101N/D140Y/D185E/E176V/E190D/F33S/G103R/G107R/I119L/I121M/I306V/K335N/L105A/L180Q/L300P/N151K/N90K/Q86E/Q94H/R106L/R138H/R89G/T104I/T345S/V100E/W191G/Y123F); details: duplicated experiments, positive binder >40%
[9] = percent relative the binding of positive control peptide […]
[10] = percent relative the binding of positive control peptide […], plate-bound monomer 0.5 µg/ml, duplicated experiments, positive binder >40%

Substance	Bind A*30:02 [1, 9] [%]	Bind A*02:01 [2, 10] [%]	Bind C*07:01 [3, 9] [%]	Bind B*58:01 [4, 9] [%]	Bind A*68:01 [5, 9] [%]	Bind A*30:01 [6, 9] [%]	Bind B*07:02 [7] [%]	Bind A*24:02 [8, 9] [%]	Bind A*30:02 ([1]; percent relative the binding of positive control peptide KIQNFRVYY) [%]	Bind A*02:01 ([2]; percent relative the binding of positive control peptide FLPSDFFPSV, plate-bound monomer 0.5 µg/ml, duplicated experiments, positive binder >40%) [%]	Bind C*07:01 ([3]; percent relative the binding of positive control peptide KYFDEHYEY) [%]	Bind B*58:01 ([4]; percent relative the binding of positive control peptide IAMESIVIW) [%]	Bind A*68:01 ([5]; percent relative the binding of positive control peptide KTGGPIYKR) [%]	Bind A*30:01 ([6]; percent relative the binding of positive control peptide KTKDIVNGL) [%]	Bind A*24:02 ([8]; percent relative the binding of positive control peptide RYLKDQQLL) [%]	Bind A*02:01 [2]
NNTRLW VYC	89	0	20	11	4	19	4	3	–	–	–	–	–	–	–	–
AIQGNVTSI [Rv3875_17-25]	–	–	–	–	–	–	4	–	49	45	14	21	29	0	9	–
NT RLW V Y CG	49	0	0	0	0	27	0	0	–	–	–	–	–	–	–	–
RLWVYCGNG	65	45	9	8	12	0	2	0	–	–	–	–	–	–	–	–
GSSAMILAA	0	66	8	29	4	0	5	0	–	–	–	–	–	–	–	–
GLSMAGSSA	0	75	0	0	0	0	31	0	–	–	–	–	–	–	–	–
PVGGQSSFY	82	0	0	0	0	0	0	0	–	–	–	–	–	–	–	–
AGGYKAADM	85	0	0	0	0	0	0	0	–	–	–	–	–	–	–	–
WVYCGNGTP	0	11	16	4	55	0	2	0	–	–	–	–	–	–	–	–
GGHNAVFNF	0	40	22	52	0	0	19	34	–	–	–	–	–	–	–	–
SLSALLDPS	3	57	11	18	0	2	1	4	–	–	–	–	–	–	–	–
AMILAAYHP	33	–	1	64	0	0	1	0	–	–	–	–	–	–	–	34
SPAVYLLDG	0	0	1	0	0	0	0	49	–	–	–	–	–	–	–	–
SW EYW GAQL	0	31	0	0	0	0	1	79	–	–	–	–	–	–	–	–
TSELPQW LS	0	12	0	0	0	0	14	52	–	–	–	–	–	–	–	–
T RLW V Y CG N	33	0	15	0	5	45	0	0	–	–	–	–	–	–	–	–
GGNNSPAVY	90	0	45	0	3	0	0	0	–	–	–	–	–	–	–	–
GGANIPAEF	70	4	5	57	0	0	0	0	–	–	–	–	–	–	–	–
DPSQGMGPS	29	30	19	12	0	21	0	58	–	–	–	–	–	–	–	–
VRSSNLKFQ	0	5	61	7	14	0	10	23	–	–	–	–	–	–	–	–
